What is called IC50 is the point on the concentration scale where inhibition reaches its midpoint.

Some results are limits rather than exact numbers.

Among the data in patent US9856264B2, “Isoquinolinesulfonyl derivative as RHO kinase inhibitor” (MEDSHINE DISCOVERY INC., priority 2014, dated 2018) are IC50 and ROCK inhibition activity values, retold here.

The target in this assay is ROCK kinase. Description: In vitro ROCK kinase inhibition activity evaluation (33P-ATP filter-binding). In kind it is biochemical. The arrangement: key to ROCK inhibition activity: 1 μM ≦ + < 5 μM; 0.1 μM ≦ ++ < 1 μM; +++ < 0.1 μM; −− N/A. As to conditions: 1 nM ROCK kinase, 20 μM Long S6 Kinase substrate peptide, 2 h room temperature. As for the experimental part:
Biological Activity Experiment: In Vitro ROCK Kinase Inhibition Activity Evaluation
Experimental Objective: Test ROCK Inhibition IC50 Value of Invented Compounds
Buffer solution: 20 mM Hepes (pH 7.5), 10 mM MgCl2, 1 mM EGTA, 0.02% Brij35, 0.02 mg/ml BSA, 0.1 mM Na3VO4, 2 mM DTT, 1% DMSO
To a freshly prepared buffer solution was added ROCK substrate Long S6 Kinase substrate peptide, with concentration at 20 μM. 1 nM ROCK kinase was then added, and well stirred. A series of DMSO solution (starting from 10 μM, dilution factor 3) of testing article was added using Echo550. The mixture was incubated for 20 min at room temperature, then was added ^33P-ATP (radioactive intensity 10 μCi/μL) to initiate reaction and further reacted for 2 h at room temperature. The mixture was filtered through P81 ion exchange paper (Whatman #3698-915), and washed by 0.75% phosphoric acid. The intensity of radiation was measured by Filter-Binding method.
The inhibition activity of the testing articles were measured by comparing the residue kinase activity to blank substrate (pure DMSO). Using Prism software ((GraphPad Software, San Diego Calif., USA) to calculate IC50 and curve.

In the case of `COc1cncc2cccc(S(=O)(=O)N3CCC4NCCCC43)c12` (centres unmarked) [Example 51, 4-methoxy-5-((octahydro-1H-pyrrolo[3,2-b]pyridin-1-yl)sulfonyl)isoquinoline], the IC50 lay in the range of 1000 to 5000 nM.

`O=S(=O)(c1cccc2cnccc12)N1CC[C@@H]2NCC[C@@H]21` (stereo in doubt) [Example 1, 5-((hexahydropyrrolo[3,2-b]pyrrol-1(2H)-yl)sulfonyl)isoquinoline]: the IC50 lay in the range of 100 to 1000 nM.

As for `Cc1cncc2cccc(S(=O)(=O)N3CC[C@@H]4NCC[C@@H]43)c12` (stereo in doubt) [Example 37, 5-((hexahydropyrrolo[3,2-b]pyrrol-1(2H)-yl)sulfonyl)-4-methylisoquinoline], the IC50 is 100 to 1000 nM.

Take `Cc1cncc2cccc(S(=O)(=O)N3CCC4NCCCC4C3)c12` (centres unmarked) [Example 45, 6-((4-methylisoquinolin-5-yl)sulfonyl)decahydro-1,6-naphthyridine]: the IC50 fell in the range of 1000 to 5000 nM.

With `COc1cncc2cccc(S(=O)(=O)N3C[C@@H]4CCN[C@@H]4C3)c12` (stereo in doubt) [Example 48, 5-((hexahydropyrrolo[3,4-b]pyrrol-5 (1H)-yl)sulfonyl)-4-methoxyisoquinoline], the IC50 is 1000 to 5000 nM.

On to `O=S(=O)(c1cccc2cncc(F)c12)N1C[C@H]2CN[C@H]2C1` (stereo in doubt) [Example 27, 5-(3,6-diazabicyclo[3.2.0]heptan-3-ylsulfonyl)-4-fluoroisoquinoline], for which the IC50 was in the range of 100 to 1000 nM.

For the compound `O=S(=O)(c1cccc2cncc(F)c12)N1CC2CCCNC2C1` (centres unmarked) [Example 30, 4-fluoro-5-((hexahydro-1H-pyrrolo[3,4-b]pyridin-6(2H)-yl)sulfonyl)isoquinoline], the IC50 was in the range of 100 to 1000 nM.

For `COc1cncc2cccc(S(=O)(=O)N3C[C@H]4CN[C@H]4C3)c12` (stereo in doubt) [Example 50, 5-(3,6-diazabicyclo[3.2.0]heptan-3-ylsulfonyl)-4-methoxyisoquinoline], the IC50 fell in the range of 1000 to 5000 nM.

`NC12CCC1CN(S(=O)(=O)c1cccc3cnccc13)C2` (centres unmarked) [Example 55, 3-(isoquinolin-5-ylsulfonyl)-3-azabicyclo[3.2.0]heptan-1-amine]: the IC50 lay in the range of 1000 to 5000 nM.

Turning to `O=S(=O)(c1cccc2cncc(C(F)F)c12)N1C[C@H]2CNC[C@H]2C1` [Example 35, 4-(difluoromethyl)-5-((hexahydropyrrolo[3,4-c]pyrrol-2(1H)-yl)sulfonyl)isoquinoline], the ROCK inhibition activity result is “−−”.

`O=S(=O)(c1cccc2cncc(Cl)c12)N1CC[C@@H]2NCC[C@@H]21` (stereo in doubt) [Example 16, 4-chloro-5-((hexahydropyrrolo[3,2-b]pyrrol-1(2H)-yl)sulfonyl)isoquinoline]: the IC50 was in the range of 100 to 1000 nM.

Regarding `Cc1cncc2cccc(S(=O)(=O)N3C[C@H]4CNC[C@H]4C3)c12` [Example 43, 5-((hexahydropyrrolo[3,4-c]pyrrol-2(1H)-yl)sulfonyl)-4-methylisoquinoline], the IC50 is less than 100 nM.

As to `O=S(=O)(c1cccc2cncc(Cl)c12)N1C[C@H]2CN[C@H]2C1` (stereo in doubt) [Example 19, 5-(3,6-diazabicyclo[3.2.0]heptan-3-ylsulfonyl)-4-chloroisoquinoline], the IC50 is less than 100 nM.

`O=S(=O)(c1cccc2cnccc12)N1C[C@H]2CCCN[C@H]2C1` (stereo in doubt) [Example 3, 5-((hexahydro-1H-pyrrolo[3,4-b]pyridin-6(2H)-yl)sulfonyl)isoquinoline]: the IC50 lay within 100 to 1000 nM.

As for `O=S(=O)(c1cccc2cncc(Cl)c12)N1CCC2NCCCC2C1` (centres unmarked) [Example 20, 6-((4-chloroisoquinolin-5-yl)sulfonyl)decahydro-1,6-naphthyridine], the IC50 was in the range of 100 to 1000 nM.

As to `NC1CCN(S(=O)(=O)c2cccc3cnccc23)C12CC2` (centres unmarked) [Example 13, 4-(isoquinolin-5-ylsulfonyl)-4-azaspiro[2.4]heptan-7-amine], the half-maximal inhibitory concentration (IC50) was less than 100 nM.

As to `O=S(=O)(c1cccc2cncc(C(F)F)c12)N1CC[C@@H]2NCC[C@@H]21` (stereo in doubt) [Example 31, 4-(difluoromethyl)-5-((hexahydropyrrolo[3,2-b]pyrrol-1(2H)-yl)sulfonyl)isoquinoline], the ROCK inhibition activity entry is “−−”.

As to `Cc1cncc2cccc(S(=O)(=O)N3C[C@@H]4CCN[C@@H]4C3)c12` [Example 38, 5-((hexahydropyrrolo[3,4-d]pyrrol-5 (1H)-yl)sulfonyl)-4-methylisoquinoline], the IC50 is less than 100 nM.

Regarding `COc1cncc2cccc(S(=O)(=O)N3C[C@H]4CNC[C@H]4C3)c12` [Example 52, 5-((hexahydropyrrolo[3,4-c]pyrrol-2(1H)-yl)sulfonyl)-4-methoxyisoquinoline], the IC50 fell in the range of 1000 to 5000 nM.

On to `O=S(=O)(c1cccc2cnccc12)N1CCC2CNCC2C1` (centres unmarked) [Example 15, 5-((hexahydro-1H-pyrrolo[3,4-c]pyridin-5(6H)-yl)sulfonyl)isoquinoline], for which the IC50 is 100 to 1000 nM.

For `O=S(=O)(c1cccc2cnccc12)N1CC2CCNCC2C1` (centres unmarked) [Example 8, 5-((hexahydro-1H-pyrrolo[3,4-c]pyridin-2(3H)-yl)sulfonyl)isoquinoline], the IC50 is 100 to 1000 nM.

Regarding `COc1cncc2cccc(S(=O)(=O)N3CCC4NCCCC4C3)c12` (centres unmarked) [Example 54, 6-((4-methoxyisoquinolin-5-yl)sulfonyl)decahydro-1,6-naphthyridine], the IC50 lay in the range of 1000 to 5000 nM.

For `O=S(=O)(c1cccc2cnccc12)N1CCC2NCCCC21` (centres unmarked) [Example 6, 5-((octahydro-1H-pyrrolo[3,2-b]pyridin-1-yl)sulfonyl)isoquinoline], the IC50 is 100 to 1000 nM.

In the case of `O=S(=O)(c1cccc2cncc(F)c12)N1C[C@H]2CNC[C@H]2C1` [Example 29, 4-fluoro-5-((hexahydropyrrolo[3,4-c]pyrrol-2(1H)-yl)sulfonyl)isoquinoline], the IC50 fell in the range of 100 to 1000 nM.

For the compound `O=S(=O)(c1cccc2cncc(F)c12)N1CCC2NCCCC21` (centres unmarked) [Example 28, 4-fluoro-5-((octahydro-1H-pyrrolo[3,2-b]pyridin-1-yl)sulfonyl)isoquinoline], the IC50 fell in the range of 100 to 1000 nM.

Turning to `Cc1cncc2cccc(S(=O)(=O)N3CCC4NCCCC43)c12` (centres unmarked) [Example 42, 4-methyl-5-((octahydro-1H-pyrrolo[3,2-b]pyridin-1-yl)sulfonyl)isoquinoline], the IC50 was less than 100 nM.

On to `O=S(=O)(c1cccc2cnccc12)N1C[C@H]2CNC[C@H]2C1` [Example 7, 5-((hexahydropyrrolo[3,4-c]pyrrol-2(1H)-yl)sulfonyl)isoquinoline], for which the IC50 lay within 100 to 1000 nM.

For the compound `COc1cncc2cccc(S(=O)(=O)N3CC4CCNCC4C3)c12` (centres unmarked) [Example 53, 5-((hexahydro-1H-pyrrolo[3,4-c]pyridin-2(3H)-yl)sulfonyl)-4-methoxyisoquinoline], the IC50 was 1000 to 5000 nM.

`O=S(=O)(c1cccc2cncc(C(F)(F)F)c12)N1C[C@@H]2CCN[C@@H]2C1` (stereo in doubt) [Example 46, 5-((hexahydropyrrolo[3,4-b]pyrrol-5 (1H)-yl)sulfonyl)-4-(trifluoromethyl)isoquinoline]: the ROCK inhibition activity entry is recorded as “−−”.

Take `NC12CC1CN(S(=O)(=O)c1cccc3cnccc13)C2` (centres unmarked) [Example 56, 3-(isoquinolin-5-ylsulfonyl)-3-azabicyclo[3.1.0]hexan-1-amine]: the half-inhibitory concentration (IC50) lay in the range of 100 to 1000 nM.

Turning to `O=S(=O)(c1cccc2cnccc12)N1CCC2NCCCCC21` (centres unmarked) [Example 14, 1-(isoquinolin-5-ylsulfonyl)decahydropyrrolo[3,2-b]azepine], the IC50 fell in the range of 100 to 1000 nM.

As for `NC1CN(S(=O)(=O)c2cccc3cnccc23)CC12CC2` (centres unmarked) [Example 10, 5-(isoquinolin-5-ylsulfonyl)-5-azaspiro[2.4]heptan-7-amine], the ROCK inhibition activity entry is recorded as “−−”.

As to `O=S(=O)(c1cccc2cncc(Cl)c12)N1C[C@H]2CCCN[C@H]2C1` (stereo in doubt) [Example 18, 4-chloro-5-((hexahydro-1H-pyrrolo[3,4-b]pyridin-6(2H)-yl)sulfonyl)isoquinoline], the IC50 is 100 to 1000 nM.

Consider `O=S(=O)(c1cccc2cncc(Cl)c12)N1C[C@@H]2CCN[C@@H]2C1` (stereo in doubt) [Example 17, 4-chloro-5-((hexahydropyrrolo[3,4-b]pyrrol-5 (1H)-yl)sulfonyl)isoquinoline], for which the IC50 was in the range of 100 to 1000 nM.

As to `O=S(=O)(c1cccc2cncc(C(F)F)c12)N1C[C@H]2CCCN[C@H]2C1` (stereo in doubt) [Example 33, 4-(difluoromethyl)-5-((hexahydro-1H-pyrrolo[3,4-b]pyridin-6(2H)-yl)sulfonyl)isoquinoline], the ROCK inhibition activity entry is reported as “−−”.

For `Cc1cncc2cccc(S(=O)(=O)N3C[C@H]4CCCN[C@H]4C3)c12` (stereo in doubt) [Example 40, 5-((hexahydro-1H-pyrrolo[3,4-b]pyridin-6(2H)-yl)sulfonyl)-4-methylisoquinoline], the 50% inhibitory concentration (IC50) is less than 100 nM.

As to `CCNC12CC1CN(S(=O)(=O)c1cccc3cnccc13)C2` (centres unmarked) [Example 57, N-ethyl-3-(isoquinolin-5-ylsulfonyl)-3-azabicyclo[3.1.0]hexan-1-amine], the IC50 was 1000 to 5000 nM.

Turning to `O=S(=O)(c1cccc2cncc(F)c12)N1C[C@H]2CCCN[C@H]2C1` (stereo in doubt) [Example 26, 4-fluoro-5-((hexahydro-1H-pyrrolo[3,4-b]pyridin-6(2H)-yl)sulfonyl)isoquinoline], the IC50 fell in the range of 100 to 1000 nM.
